From the supplement of paper PMC10627819

Key:
S. pneumoniae D39V [1] = assay: fitness (endpoint OD595 vs no drug) (fraction); higher = more growth
Procedure, shortened: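 Volumes were 30 µl per well, or 55 µl for S. pneumoniae, in 384-well plates inoculated at OD595 0.01. Media were TSB, LB Lennox or CY at 37 °C, and OD595 was read every 30 min for 14 h with first-reading background subtraction. Fitness is the ratio of optical density at stationary-phase entry to the robust mean of no-drug controls. That ratio is capped at 1.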

B. subtilis 168 = assay: Bliss interaction score (quartile over a dose matrix) (fitness difference); higher = more antagonism (negative = synergy)
Procedure, shortened: (§1)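 Fitness is OD595 at stationary-phase entry relative to the plate's robust no-drug mean, capped at 1. Single-drug fitness was inferred from combinations. The Bliss score is observed minus product-expected fitness, summarised by quartiles over technical, biological and donor/recipient replicates.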

S. aureus DSM 20231 = assay: as above
Procedure, shortened: as §1

S. aureus Newman = assay: as above
Procedure, shortened: as §1

S. pneumoniae D39V [2] = assay: as above
Procedure, shortened: as §1
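For Bliss interaction score (quartile over a dose matrix) in this document: first quartile when negative (synergy) and third quartile when positive (antagonism).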

CC[C@H]1OC(=O)[C@H](C)[C@@H](O[C@H]2C[C@@](C)(OC)[C@@H](O)[C@H](C)O2)[C@H](C)[C@@H](O[C@@H]2O[C@H](C)C[C@H](N(C)C)[C@H]2O)[C@](C)(OC)C[C@@H](C)C(=O)[C@H](C)[C@@H](O)[C@]1(C)O [Clarithromycin] + CCN(CC)CCOC(=O)c1ccc(N)cc1 [Procaine]
fitness, S. pneumoniae D39V [1], one replicate
Conditions	first compound 0.007812 µg/mL	first compound 0.01562 µg/mL	first compound 0.03125 µg/mL	first compound 0.0625 µg/mL	first compound 0.125 µg/mL	first compound 0.25 µg/mL
partner 85.5 µg/mL	0.962	0.921	0.691	0.659	0.251	0.102
partner 171 µg/mL	0.983	0.903	0.702	0.77	0.284	0.169
partner 342 µg/mL	0.993	0.923	0.719	0.595	0.464	0.33

fitness, S. pneumoniae D39V [1]
Conditions	first compound 0.07 µg/mL	first compound 0.14 µg/mL	first compound 0.28 µg/mL
partner 85.5 µg/mL	0.125	0.0737	0.0531
partner 171 µg/mL	0.141	0.065	0.0466
partner 342 µg/mL	0.141	0.0668	0.061

Conditions	Bliss interaction score
B. subtilis 168	0.0395
S. aureus DSM 20231	0.0493
S. aureus Newman	0.0711
S. pneumoniae D39V [2]	0.0576

CC[C@H]1OC(=O)[C@H](C)[C@@H](O[C@H]2C[C@@](C)(OC)[C@@H](O)[C@H](C)O2)[C@H](C)[C@@H](O[C@@H]2O[C@H](C)C[C@H](N(C)C)[C@H]2O)[C@](C)(OC)C[C@@H](C)C(=O)[C@H](C)[C@@H](O)[C@]1(C)O [Clarithromycin] + CN1C2=CC=CC=C2N=C3C1=CC=CC3=O [Pyocyanin]
fitness, S. pneumoniae D39V [1], one replicate
Conditions	first compound 0.007812 µg/mL	first compound 0.01562 µg/mL	first compound 0.03125 µg/mL	first compound 0.0625 µg/mL	first compound 0.125 µg/mL	first compound 0.25 µg/mL
partner 0.325 µg/mL	0.965	0.884	0.682	0.757	0.486	0.112
partner 0.65 µg/mL	0.928	0.88	0.651	0.75	0.501	0.273
partner 1.3 µg/mL	0.747	0.695	0.525	–	–	–

fitness, S. pneumoniae D39V [1]
Conditions	first compound 0.07 µg/mL	first compound 0.14 µg/mL	first compound 0.28 µg/mL
partner 0.325 µg/mL	0.0912	0.0902	0.0525
partner 0.65 µg/mL	0.0867	0.0888	0.0453
partner 1.3 µg/mL	0.0798	0.0783	0.0672

Conditions	Bliss interaction score
B. subtilis 168	0.0334
S. aureus DSM 20231	-0.0903
S. aureus Newman	-0.0697
S. pneumoniae D39V [2]	-0.0433

CC[C@H]1OC(=O)[C@H](C)[C@@H](O[C@H]2C[C@@](C)(OC)[C@@H](O)[C@H](C)O2)[C@H](C)[C@@H](O[C@@H]2O[C@H](C)C[C@H](N(C)C)[C@H]2O)[C@](C)(OC)C[C@@H](C)C(=O)[C@H](C)[C@@H](O)[C@]1(C)O [Clarithromycin] + CN(C)C(=O)C(CCN1CCC(O)(c2ccc(Cl)cc2)CC1)(c1ccccc1)c1ccccc1 [Loperamide]
fitness, S. pneumoniae D39V [1], one replicate
Conditions	first compound 0.007812 µg/mL	first compound 0.01562 µg/mL	first compound 0.03125 µg/mL	first compound 0.0625 µg/mL	first compound 0.125 µg/mL	first compound 0.25 µg/mL
partner 20 µg/mL	≥ 1	≥ 1	0.711	–	–	–
partner 40 µg/mL	≥ 1	0.995	0.768	–	–	–
partner 68.57 µg/mL	–	–	–	0.913	0.515	0.498
partner 80 µg/mL	0.0268	0.0618	0.0304	–	–	–

fitness, S. pneumoniae D39V [1]
Conditions	first compound 0.0625 µg/mL	first compound 0.07 µg/mL	first compound 0.125 µg/mL	first compound 0.14 µg/mL	first compound 0.28 µg/mL
partner 17.14 µg/mL	0.788	–	0.541	–	–
partner 20 µg/mL	–	0.168	–	0.0771	0.0614
partner 34.28 µg/mL	0.751	–	0.491	–	–
partner 40 µg/mL	–	0.173	–	0.0855	0.0994
partner 80 µg/mL	–	0.0672	–	0.0833	0.047

Conditions	Bliss interaction score
B. subtilis 168	0.0248
S. aureus DSM 20231	0.18
S. aureus Newman	-0.0355
S. pneumoniae D39V [2]	0.129

CC[C@H]1OC(=O)[C@H](C)[C@@H](O[C@H]2C[C@@](C)(OC)[C@@H](O)[C@H](C)O2)[C@H](C)[C@@H](O[C@@H]2O[C@H](C)C[C@H](N(C)C)[C@H]2O)[C@](C)(OC)C[C@@H](C)C(=O)[C@H](C)[C@@H](O)[C@]1(C)O [Clarithromycin] + CN(C)c1cc(NC(=O)CNC(C)(C)C)c(O)c2c1C[C@H]1C[C@H]3[C@H](N(C)C)C(O)=C(C(N)=O)C(=O)[C@@]3(O)C(O)=C1C2=O [Tigecycline]
fitness, S. pneumoniae D39V [1], one replicate
Conditions	first compound 0.007812 µg/mL	first compound 0.01562 µg/mL	first compound 0.03125 µg/mL
partner 0.65 µg/mL	0.848	0.757	0.646
partner 1.3 µg/mL	0.813	0.749	0.633
partner 2.6 µg/mL	0.815	0.747	0.619

fitness, S. pneumoniae D39V [1]
Conditions	first compound 0.0625 µg/mL	first compound 0.07 µg/mL	first compound 0.125 µg/mL	first compound 0.14 µg/mL	first compound 0.25 µg/mL	first compound 0.28 µg/mL
partner 0.325 µg/mL	–	0.111	–	0.071	–	0.0539
partner 0.65 µg/mL	0.589	0.0865	0.253	0.0638	0.113	0.0627
partner 1.3 µg/mL	0.506	0.0861	0.213	0.0727	0.103	0.068
partner 2.6 µg/mL	0.494	–	0.198	–	0.119	–

Conditions	Bliss interaction score
B. subtilis 168	0.0852
S. aureus DSM 20231	0.0343
S. aureus Newman	-0.0401
S. pneumoniae D39V [2]	-0.0848

CC[C@H]1OC(=O)[C@H](C)[C@@H](O[C@H]2C[C@@](C)(OC)[C@@H](O)[C@H](C)O2)[C@H](C)[C@@H](O[C@@H]2O[C@H](C)C[C@H](N(C)C)[C@H]2O)[C@](C)(OC)C[C@@H](C)C(=O)[C@H](C)[C@@H](O)[C@]1(C)O [Clarithromycin] + CN(N=O)C(=O)N[C@@H](C=O)[C@@H](O)[C@H](O)[C@H](O)CO [Streptozotocin]
fitness, S. pneumoniae D39V [1], one replicate
Conditions	first compound 0.007812 µg/mL	first compound 0.01562 µg/mL	first compound 0.03125 µg/mL	first compound 0.0625 µg/mL	first compound 0.125 µg/mL	first compound 0.25 µg/mL
partner 1.2 µg/mL	0.873	0.804	0.673	0.674	0.263	0.0915
partner 2.4 µg/mL	0.877	0.815	0.672	0.713	0.32	0.134
partner 4.8 µg/mL	0.87	0.802	0.661	0.537	0.0252	0

fitness, S. pneumoniae D39V [1]
Conditions	first compound 0.07 µg/mL	first compound 0.14 µg/mL	first compound 0.28 µg/mL
partner 1.2 µg/mL	0.115	0.0648	0.031
partner 2.4 µg/mL	0.119	0.0981	0.0724
partner 4.8 µg/mL	0.0916	0.0774	0.033

Conditions	Bliss interaction score
B. subtilis 168	0.0503
S. aureus DSM 20231	0.0361
S. aureus Newman	-0.0313
S. pneumoniae D39V [2]	0.0525

CC[C@H]1OC(=O)[C@H](C)[C@@H](O[C@H]2C[C@@](C)(OC)[C@@H](O)[C@H](C)O2)[C@H](C)[C@@H](O[C@@H]2O[C@H](C)C[C@H](N(C)C)[C@H]2O)[C@](C)(OC)C[C@@H](C)C(=O)[C@H](C)[C@@H](O)[C@]1(C)O [Clarithromycin] + CN[C@@H]1[C@H](O)[C@H](NC)[C@H]2O[C@@]3(O)C(=O)C[C@@H](C)O[C@H]3O[C@@H]2[C@H]1O [Spectinomycin]
fitness, S. pneumoniae D39V [1], one replicate
Conditions	first compound 0.007812 µg/mL	first compound 0.01562 µg/mL	first compound 0.03125 µg/mL	first compound 0.0625 µg/mL	first compound 0.125 µg/mL	first compound 0.25 µg/mL
partner 4 µg/mL	0.836	0.755	0.669	0.725	0.326	0.156
partner 8 µg/mL	0.741	0.72	0.658	0.676	0.221	0.114
partner 16 µg/mL	0.644	0.664	0.528	–	–	–

fitness, S. pneumoniae D39V [1]
Conditions	first compound 0.07 µg/mL	first compound 0.14 µg/mL	first compound 0.28 µg/mL
partner 4 µg/mL	0.138	0.0851	0.0564
partner 8 µg/mL	0.138	0.0752	0.0774
partner 16 µg/mL	0.114	0.0949	0.0947

Conditions	Bliss interaction score
B. subtilis 168	-0.0725
S. aureus DSM 20231	-0.142
S. aureus Newman	-0.181
S. pneumoniae D39V [2]	-0.0344

CC[C@H]1OC(=O)[C@H](C)[C@@H](O[C@H]2C[C@@](C)(OC)[C@@H](O)[C@H](C)O2)[C@H](C)[C@@H](O[C@@H]2O[C@H](C)C[C@H](N(C)C)[C@H]2O)[C@](C)(OC)C[C@@H](C)C(=O)[C@H](C)[C@@H](O)[C@]1(C)O [Clarithromycin] + CN[C@@H]1[C@H](O[C@H]2[C@H](O[C@H]3[C@H](O)[C@@H](O)[C@H](N=C(N)N)[C@@H](O)[C@@H]3N=C(N)N)O[C@@H](C)[C@]2(O)C=O)O[C@@H](CO)[C@H](O)[C@H]1O [Streptomycin]
fitness, S. pneumoniae D39V [1], one replicate
Conditions	first compound 0.007812 µg/mL	first compound 0.01562 µg/mL	first compound 0.03125 µg/mL	first compound 0.0625 µg/mL	first compound 0.125 µg/mL	first compound 0.25 µg/mL
partner 2 µg/mL	0.857	0.802	0.663	0.68	0.318	0.129
partner 4 µg/mL	0.866	0.799	0.694	–	–	–
partner 8 µg/mL	0.845	0.793	0.651	–	–	–
partner 16 µg/mL	–	–	–	0.478	0.184	0.0864

fitness, S. pneumoniae D39V [1]
Conditions	first compound 0.0625 µg/mL	first compound 0.07 µg/mL	first compound 0.125 µg/mL	first compound 0.14 µg/mL	first compound 0.25 µg/mL	first compound 0.28 µg/mL
partner 2 µg/mL	–	0.117	–	0.0741	–	0.0426
partner 4 µg/mL	0.623	0.103	0.3	0.0646	0.142	0.0455
partner 8 µg/mL	0.594	0.154	0.312	0.0691	0.107	0.0723

Conditions	Bliss interaction score
B. subtilis 168	0.0553
S. aureus DSM 20231	0.0696
S. aureus Newman	-0.0521
S. pneumoniae D39V [2]	-0.0538
